Source: the supplement of paper PMC8617591

Columns and labels:
[1] = test system: Mycobacterium tuberculosis Erdman (autoluminescent); assay: GRinf, maximum normalised growth rate inhibition (unitless (-1 to 1)); higher = less effect (negative = killing)
Protocol: (§1)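 DiaMOND equipotent two-drug combination dose responses against autoluminescent M. tuberculosis Erdman in 8 in vitro models. Read-out is OD600, or luminescence for the intracellular and dormancy models, normalised to untreated wells. Hill-fit Einf, AUC25 and GRinf are potency metrics; FIC50 and FIC90 are Loewe-additivity fractional inhibitory concentrations, given as log2 (negative = synergy). Replicates are averaged.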

[2] = test system: Mycobacterium tuberculosis Erdman (autoluminescent); assay: Einf, fitted maximum growth inhibition of combination (fraction); higher = stronger maximal inhibition
Protocol: as §1

[3] = test system: Mycobacterium tuberculosis Erdman (autoluminescent); assay: FIC50 (Loewe) at 50% inhibition (log2); higher = more antagonistic
Protocol: as §1

[4] = test system: Mycobacterium tuberculosis Erdman (autoluminescent); assay: FIC90 (Loewe) at 90% inhibition (log2); higher = more antagonistic
Protocol: as §1

[5] = test system: Mycobacterium tuberculosis Erdman (autoluminescent); assay: AUC25, normalised area under dose response up to IC25 (fraction (0-1)); higher = more potent at low dose
Protocol: as §1

[6] = test system: Mycobacterium tuberculosis Erdman (autoluminescent); assay: total FIC90 (Loewe) at 90% inhibition, three-drug combination (log2); higher = more antagonistic
Protocol: (§2)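 DiaMOND equipotent three-drug combination dose responses (10 doses, 1.5- or 2-fold spacing, centred on IC90) against autoluminescent M. tuberculosis Erdman in 8 in vitro models. Read-out is OD600, or luminescence for the intracellular and dormancy models, normalised to untreated wells. Hill-fit Einf, AUC25 and GRinf are potency metrics; FIC50 and FIC90 are total Loewe fractional inhibitory concentrations as log2 (negative = synergy).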

[7] = test system: Mycobacterium tuberculosis Erdman (autoluminescent); assay: total FIC50 (Loewe) at 50% inhibition, three-drug combination (log2); higher = more antagonistic
Protocol: as §2

[8] = test system: Mycobacterium tuberculosis Erdman (autoluminescent); assay: AUC25, normalised area under dose response up to IC25 (three-drug combination) (fraction (0-1)); higher = more potent at low dose
Protocol: as §2

[9] = test system: Mycobacterium tuberculosis Erdman (autoluminescent); assay: Einf, fitted maximum growth inhibition of three-drug combination (fraction); higher = stronger maximal inhibition
Protocol: as §2

[10] = test system: Mycobacterium tuberculosis Erdman (autoluminescent); assay: GRinf, maximum normalised growth rate inhibition (three-drug combination) (unitless (-1 to 1)); higher = less effect (negative = killing)
Protocol: as §2

CC(=O)NC[C@H]1CN(c2ccc(N3CCOCC3)c(F)c2)C(=O)O1 [linezolid] + O=[N+]([O-])c1cn2c(n1)OC[C@@H](OCc1ccc(OC(F)(F)F)cc1)C2 [pretomanid]
Conditions | AUC25, [5] | Einf, [2] | FIC50, [3] | FIC90, [4] | GRinf, [1]
in vitro model: acidic pH 5.7, time point: constant (~7 days, model-specific) | 0.116 | 0.89 | 0.583 | – | -0.559
in vitro model: acidic pH 5.7, time point: terminal (~4-5 doublings, model-specific) | 0.0893 | 0.984 | 0.324 | 0.246 | -0.355
in vitro model: intracellular J774, time point: constant = terminal | – | 0.993 | – | 1.06 | -0.54

Conditions | AUC25, [5] | Einf, [2] | FIC50, [3] | FIC90, [4] | GRinf, [1]
in vitro model: butyrate, time point: constant (~7 days, model-specific) | 0.0973 | 0.907 | 0.595 | 1.47 | 0.0334
in vitro model: butyrate, time point: terminal (~4-5 doublings, model-specific) | 0.0643 | 0.947 | 0.4 | 0.493 | 0.0161
in vitro model: cholesterol 0.05 mM, time point: constant (~7 days, model-specific) | 0.13 | 0.708 | -0.367 | – | -0.103
in vitro model: cholesterol 0.05 mM, time point: terminal (~4-5 doublings, model-specific) | 0.142 | 0.942 | -0.293 | 0.00527 | -0.182
in vitro model: cholesterol-high 0.2 mM, time point: constant (~7 days, model-specific) | 0.0977 | 0.869 | -0.451 | -0.477 | -0.114
in vitro model: cholesterol-high 0.2 mM, time point: terminal (~4-5 doublings, model-specific) | 0.111 | 0.992 | -0.228 | 0.311 | -0.548
in vitro model: dormancy (butyrate + nitrate, low O2), time point: constant (~7 days, model-specific) | 0.0359 | 0.925 | 0.74 | 0.509 | 0.0858
in vitro model: dormancy (butyrate + nitrate, low O2), time point: terminal (~4-5 doublings, model-specific) | 0.0385 | 0.991 | 0.255 | 0.232 | -0.248
in vitro model: standard 7H9 glycerol, time point: constant = terminal | 0.0819 | 0.971 | 0.34 | 0.309 | -0.171
in vitro model: valerate, time point: constant (~7 days, model-specific) | 0.102 | 0.802 | 1.02 | – | 0.0728
in vitro model: valerate, time point: terminal (~4-5 doublings, model-specific) | 0.123 | 0.951 | -0.689 | 0.943 | 0.0215

CC(C)/N=c1\cc2n(-c3ccc(Cl)cc3)c3ccccc3nc-2cc1Nc1ccc(Cl)cc1 [clofazimine] + COc1c(N2C[C@@H]3CCCN[C@@H]3C2)c(F)cc2c(=O)c(C(=O)O)cn(C3CC3)c12 [moxifloxacin]
Conditions | AUC25, [5] | Einf, [2] | FIC50, [3] | FIC90, [4] | GRinf, [1]
in vitro model: acidic pH 5.7, time point: constant (~7 days, model-specific) | 0.151 | 0.605 | 0.466 | – | -0.0307
in vitro model: acidic pH 5.7, time point: terminal (~4-5 doublings, model-specific) | 0.0976 | 0.937 | 0.107 | 0.181 | -0.212
in vitro model: intracellular J774, time point: constant = terminal | – | 0.953 | – | 0.341 | -0.283

Conditions | AUC25, [5] | Einf, [2] | FIC50, [3] | FIC90, [4] | GRinf, [1]
in vitro model: butyrate, time point: constant (~7 days, model-specific) | 0.109 | 0.955 | 0.486 | 1 | -0.131
in vitro model: butyrate, time point: terminal (~4-5 doublings, model-specific) | 0.0987 | 0.991 | 0.404 | 0.955 | -0.125
in vitro model: cholesterol 0.05 mM, time point: constant (~7 days, model-specific) | 0.153 | 0.711 | 0.262 | – | -0.0492
in vitro model: cholesterol 0.05 mM, time point: terminal (~4-5 doublings, model-specific) | 0.119 | 0.905 | 0.647 | -0.276 | -0.105
in vitro model: cholesterol-high 0.2 mM, time point: constant (~7 days, model-specific) | 0.131 | 0.944 | 0.132 | 1.06 | -0.922
in vitro model: cholesterol-high 0.2 mM, time point: terminal (~4-5 doublings, model-specific) | 0.113 | 1 | 0.0758 | 0.41 | -0.95
in vitro model: dormancy (butyrate + nitrate, low O2), time point: constant (~7 days, model-specific) | 0.109 | 0.931 | 0.299 | 0.00346 | -0.049
in vitro model: dormancy (butyrate + nitrate, low O2), time point: terminal (~4-5 doublings, model-specific) | 0.0647 | 0.98 | 0.666 | 0.72 | -0.241
in vitro model: standard 7H9 glycerol, time point: constant = terminal | 0.109 | 0.971 | 0.11 | 0.558 | -0.193
in vitro model: valerate, time point: constant (~7 days, model-specific) | 0.139 | 0.895 | -0.0703 | – | -0.179
in vitro model: valerate, time point: terminal (~4-5 doublings, model-specific) | 0.0871 | 0.941 | 0.137 | 0.7 | -0.0272

CC(=O)NC[C@H]1CN(c2ccc(N3CCOCC3)c(F)c2)C(=O)O1 [linezolid] + O=[N+]([O-])c1cn2c(n1)OC[C@@H](OCc1ccc(OC(F)(F)F)cc1)C2 [pretomanid] + CO[C@H]1/C=C/O[C@@]2(C)Oc3c(C)c(O)c4c(O)c(c(/C=N/N5CCN(C6CCCC6)CC5)c(O)c4c3C2=O)NC(=O)/C(C)=C\C=C\[C@H](C)[C@H](O)[C@@H](C)[C@@H](O)[C@@H](C)[C@H](OC(C)=O)[C@@H]1C [rifapentine]
Conditions | AUC25, [8] | Einf, [9] | GRinf, [10] | total FIC50, [7] | total FIC90, [6]
in vitro model: acidic pH 5.7, time point: constant (~7 days, model-specific) | 0.0833 | 0.887 | 0.0321 | 0.893 | –
in vitro model: acidic pH 5.7, time point: terminal (~4-5 doublings, model-specific) | 0.0609 | 0.978 | 0.00722 | 0.838 | 0.632
in vitro model: intracellular J774, time point: constant = terminal | – | 0.953 | -0.276 | – | 0.646

Conditions | AUC25, [8] | Einf, [9] | GRinf, [10] | total FIC50, [7] | total FIC90, [6]
in vitro model: butyrate, time point: constant (~7 days, model-specific) | 0.0937 | 0.91 | -0.0425 | 0.403 | 0.09
in vitro model: butyrate, time point: terminal (~4-5 doublings, model-specific) | 0.0716 | 0.955 | 0.0296 | 0.296 | 0.336
in vitro model: cholesterol 0.05 mM, time point: constant (~7 days, model-specific) | 0.142 | 0.677 | -0.167 | 0.533 | –
in vitro model: cholesterol 0.05 mM, time point: terminal (~4-5 doublings, model-specific) | 0.127 | 0.89 | -0.198 | 0.278 | 0.6
in vitro model: cholesterol-high 0.2 mM, time point: constant (~7 days, model-specific) | 0.0858 | 0.912 | -0.159 | 0.139 | 0.124
in vitro model: cholesterol-high 0.2 mM, time point: terminal (~4-5 doublings, model-specific) | 0.095 | 1 | -0.71 | 0.348 | 0.313
in vitro model: dormancy (butyrate + nitrate, low O2), time point: constant (~7 days, model-specific) | 0.0497 | 0.894 | 0.223 | 0.906 | 0.707
in vitro model: dormancy (butyrate + nitrate, low O2), time point: terminal (~4-5 doublings, model-specific) | 0.0403 | 0.979 | -0.0764 | 0.858 | 0.899
in vitro model: standard 7H9 glycerol, time point: constant = terminal | 0.0904 | 0.932 | -0.132 | 0.424 | 0.754
in vitro model: valerate, time point: constant (~7 days, model-specific) | 0.159 | 0.913 | -0.446 | -1.08 | –
in vitro model: valerate, time point: terminal (~4-5 doublings, model-specific) | 0.125 | 0.966 | -0.15 | -0.336 | 1.3
